These results are taken from patent publication EP1985629A1, “Pro-apoptotic molecules and therapeutic uses thereof” (UNIVERSITA DEGLI STUDI DI GENOVA, priority 2007, dated 2008).

For orientation: Kd means the concentration at which binding is half-saturated. As usually defined, the half-life is how long it takes for the measured level to halve.

The target of data set [1] is T1, Bcl-XL (Homo sapiens, UniProt Q07817, S2L).
T1 construct: with the C-terminus truncated; His6; made in house; host or cells: Escherichia coli BL21 (pLys)
In words: Fluorescence anisotropy binding and competition binding assay. The note with it: competition binding assay: BakF-BH3 2E-8 M, competitor peptide 2E-7 M, Bcl-XL 2E-8 M to 1E-6 M; 45 min, 30°C; read-out: Weighted mean Kd. The method, then:
Fluorescence Anisotropy was monitored with a Polarion Instrument (Tecan, Austria): excitation wavelength = 485 nm, emission wavelength = 535 nm. […] Anisotropy values were studied at a fixed concentration of fluoresceinated Bak BH3 molecule (2E-8 M), a fixed concentration of peptide inhibitors (2E-7 M) and increasing concentrations of Bel-XL (from 2E-8 M to 1E-6 M). Experiments were performed in 96-wells black non-binding plates (Corning), the experimental volume was always 200 µl / well. Reagents were mixed at room temperature and maintained at a constant temperature (30°C) during the measurements. Anisotropy measurements were performed at different times of incubation to assess the stability of the reactions. […]
For simple binding experiments we evaluated the Kd using a nonlinear regression analysis [NLIN SAS] to fit the Lundblad equation [38]. […]
We calculated the expected Anisotropy value solving a third degree equation obtained extending the simple binding equation to a competitive binding inhibition assay. […]
Point estimates of each equilibrium constant were evaluated using meta-analytical tools weighting each experimental result for its estimated variance. […]
Fluorescence Anisotropy (FA) is a quantitative technique to analyze the interaction of a smaller fluorescent molecule with a larger non fluorescent molecule. […]
Background: In fluorescence polarisation assays a small probe gives low polarisation when free and higher when bound to something large.

Data set [2] has as its system U937 cell line. The data set is described as follows: Cell growth, cell counts (trypan blue exclusion). It is filed as cell-based, human. The note with it: U937, 1 µM up to 30 µM, four days. The method, then:
• Figure 1 Fluorescence Anisotropy Assay. Average anisotropy values: (open square) binding assay for increasing concentrations of Bcl-XL at a fixed concentration of fluorescent Bak-BH3 peptide. […] The error bars represent standard deviations observed from triplicate experiments. • Figure 2 072RB: cell growth effects. Panel A: Cell growth of U937 cell line treated for four days every 24 h at a 1 µM 072RB concentration and every 48 h at 3, 5, 10 and 30 µM 072RB concentrations. U937 controls at day 4, cell number: 350,000 ±50,000. Number of cells seeded at day 0: 20,000. Arrows indicate treatment time. […] All cells were counted in a Burker chamber and values are expressed as percentage of the untreated control cell number. Only living cells identified by trypan blue exclusion staining were counted. […] Flow cytometry measurements of DNA content (evaluated by propidium iodide (PI) fluorescence intensity) and physical cell side-scattering (evaluated by SSC) in U937 cells treated with Int and 072RB at 10 µM, twice each 48h. […] Three main cell populations can be observed in the bivariate PI/SSC plots, one with low SSC and normal DNA content (that accounts for "live" cells in culture), another with high SSC and normal DNA content (cells undergoing "early stage of apoptosis") and another one with lower PI fluorescence (cells at "late stage of apoptosis" and debris). […]

Data set [3] is described as follows: Peptides stability in medium with 10% FBS or in 100% FBS (HPLC-MS). The note with it: 37°C. Type of data set: in vitro ADME. Here is the method:
Compounds were added to the medium solution of serum 10% or 100% FBS at the final concentration of 32 µM. Several extraction mixtures were attempted: MeOH; MeOH with 0,1% trifluoroacetic acid (TFA); (H2O: MeOH) 1:1, 1:4, 4;1. A perchloric acid (PCA) protein precipitation protocol was also tried. […] In both cases ice-cold methanol was added to the peptide solution. The mixture was centrifuged and the resulting supernatant was then added with ice-cold methanol (alone or containing 0,1% TFA) at a 1:1 final ratio and this procedure was repeated twice. Before extraction peptides were incubated in 10% FBS or 100% FBS at 37°C and, at different incubation times (0', 6, 24 and 48 hours), a sample of 50 µl was collected to be analyzed by HPLC-MS.

Where a SMILES comes first, the peptide text is derived from it. [ ]: non-standard residue; d: D form. Aib = CC(C)(N)C(=O)O

T1 sequence (Q07817 1-212 S2L): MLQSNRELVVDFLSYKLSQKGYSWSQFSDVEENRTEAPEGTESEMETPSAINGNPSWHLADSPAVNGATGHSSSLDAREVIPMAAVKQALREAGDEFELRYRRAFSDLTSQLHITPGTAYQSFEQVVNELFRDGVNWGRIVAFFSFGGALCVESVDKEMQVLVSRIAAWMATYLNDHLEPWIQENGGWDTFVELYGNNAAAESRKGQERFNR

With `CC[C@H](C)[C@H](NC(=O)[C@H](CCCNC(=N)N)NC(=O)[C@H](CCCNC(=N)N)NC(=O)[C@H](CC(C)C)NC(=O)[C@H](CCC(=O)O)NC(=O)[C@H](CCC(N)=O)NC(=O)C(C)(C)NC(=O)[C@@H](NC(=O)[C@H](Cc1ccc(O)cc1)NC(=O)[C@@H](NC(=O)[C@H](CCC(=O)O)NC(=O)[C@@H]1CCCN1C(=O)[C@H](CCCNC(=N)N)NC(=O)[C@H](CCSC)NC(=O)[C@@H](N)CC(=O)O)[C@@H](C)CC)[C@@H](C)CC)C(=O)NCC(=O)N[C@@H](CC(=O)O)C(=O)N[C@@H](C)C(=O)N[C@@H](Cc1ccccc1)C(=O)N[C@@H](CC(N)=O)C(=O)NC(C)(C)C(=O)N[C@@H](Cc1ccc(O)cc1)C(=O)N[C@@H](CCCCN)C(=O)N[C@@H](CCCCN)C(=O)N[C@@H](Cc1c[nH]c2ccccc12)C(=O)N[C@@H](CCCCN)C(=O)N[C@@H](CCSC)C(=O)N[C@@H](CCCNC(=N)N)C(=O)N[C@@H](CCCNC(=N)N)C(=O)N[C@@H](CC(N)=O)C(=O)N1CCC[C@H]1C(=O)N[C@@H](Cc1ccccc1)C(=O)N[C@@H](Cc1c[nH]c2ccccc12)C(=O)N[C@H](C(=O)N[C@@H](CCCCN)C(=O)N[C@H](C(=O)N[C@@H](CCC(N)=O)C(=O)N[C@@H](CCCNC(=N)N)C(N)=O)[C@@H](C)CC)[C@@H](C)CC` [Peptide 072RB] (H-DMRPEIYI[Aib]QELRRIGDAFN[Aib]YKKWKMRRNPFWIKIQR-NH2; N-terminus and C-terminus assumed), the Kd in data set [1] is 4.3 nM. Also, the “cell growth (cell counts)” value in data set [2] is reported as “dose-dependent inhibition of cell growth”. For the same compound, the half-life at 32 µM in data set [3] (RPMI 1640 medium with 10% fetal bovine serum (FBS), medium (RPMI 1640) with 10% FBS, calculated by linear regression) was 36.5 h; in data set [3] (bovine, 100% fetal bovine serum (FBS), 100% FBS), 17.8 h.
